Results from US9011915B2, “Conveniently implantable sustained release drug compositions” (Ramscor, Inc., priority 2004, dated 2015).
Where two headings read alike, the source gives them in different places.

Tests used:
[1] = In vivo release of dexamethasone from 25% dexamethasone in benzyl benzoate (DB) injected into posterior segment, vitreous humor HPLC; design: species or system rabbit; settings: for mean vitreous level of dexamethasone: 25% formulation in benzyl benzoate
Method: Benzyl benzoate (BB) served as placebo.
The in vivo release of the DB composition was studied in twenty-four rabbits. Twenty-five μl of 25% DB was injected into the posterior segment of one eye of twelve animals and the contralateral eye received a placebo. Another twelve animals received 50 μl of the DB in one eye and 50 μl of the BB placebo in the second eye. Animals were euthanized at the appropriate time points and vitreous humor samples were removed surgically. Dexamethasone concentration was determined by high pressure liquid chromatography (HPLC) as described in Example 5.

[2] = ingested 650 mg 2-ABA, cited from earlier work; for maximum synovial fluid levels / time of maximum synovial fluid levels: human knee
[3] = cited from earlier work
[4] = In vivo release of rapamycin from TEAC formulation in vitreous cavity, LC-MS; design: species or system NZW rabbits; settings: 5.0 mg rapamycin in 10:90 rapamycin:TEAC mixture
Method: Five (5.0) mg rapamycin contained in a 10:90 rapamycin:TEAC mixture were injected into the vitreous cavity of one eye in three 4.0-4.5 kg. NZW rabbits. Vitreous sampling was performed in each animal, and the concentration of released Rapamycin determined by liquid chromatography and mass spectrometry.

[5] = continuously exceeded over an extended period of time; cited from earlier work
[6] = cited from earlier work; remark: listed apart in the source
[7] = cited from earlier work; remark: listed apart in the source
COX-1 and COC-2 enzymes = settings: acetylation of COX enzymes, in the eye; cited from earlier work
[8] = 3:1 dexamethasone:ciprofloxacin in benzyl benzoate
Method: The vials for the release studies were labeled and the weight of each vial was recorded. To each vial was added 3-4 grams of 0.9% saline solution and the weight was recorded. Then the SRF was injected or placed at the bottom of the vial. The weight of the SRF was recorded. An additional amount of 0.9% saline solution was added to a total of 10 grams of saline. The resulting vial was kept in an incubator or water bath at 37° C. Samples were taken periodically to measure the release profile of dexamethasone or triamcinolone acetonide using a HPLC instrument. Sampling protocol was carried out according to the following procedure: Using a disposable pipette, 8 grams of the saline solution containing dexamethasone or triamcinolone acetonide was withdrawn carefully from each vial. 8 grams of 0.9% saline solution was then added to each vial. The vials were kept at 37° C. after sampling.
The HPLC analysis was carried out using a Beckman Gold Instrument with an autosampler. […] Calibrators and samples were injected onto a C18 column (Rainin, 250×4.6 mm) containing a guard column (C18, 4.6 mm×1 cm) and analyzed, respectively. […] The dexamethasone or triamcinolone acetonide (retention times, 6-4 minutes) concentration of each sample was calculated from the standard curve using the software of the Beckman Gold instrument.

blood glucose levels = assay: Injected versus transdermal delivery of insulin, blood glucose levels; type: in vivo, mouse
Method: The comparison of injected versus transdermal delivery of several formulation of insulin was studied in a mouse model. One mg of porcine insulin was injected IP (intraperitoneal) into a mouse. […] One mg of porcine insulin mixed with 0.1 ml of tocopherol acetate was applied topically on the skin of a shaved mouse.
Porcine insulin (20 mg) was mixed in 199 mg/ml of tocopheryl acetate and formed a paste (or gel) which and was applied to the backs of shaved albino mice as follows: Mouse #1 was treated with 39.8 mg of insulin/tocopherol acetate paste, equaling 3.6 mg of insulin; mouse #2 was treated with 75.2 mg of insulin/tocopherol acetate paste, equaling 6.9 mg of insulin. Tail blood glucose levels were determined by Home Diagnostics, Inc. True Track smart system at intervals depicted in FIG. 22.

[9] = 1 mg porcine insulin injected IP
[10] = 1 mg porcine insulin mixed with 0.1 ml tocopherol acetate, injected IP

For `C[C@@H]1C[C@H]2[C@@H]3CCC4=CC(=O)C=C[C@]4(C)[C@@]3(F)[C@@H](O)C[C@]2(C)[C@@]1(O)C(=O)CO` [dexamethasone], the “mean vitreous level of dexamethasone” value ([1]; 25 μl injection, over a sixty day period) was “approximately 4.0 μg/ml”, the “mean vitreous level of dexamethasone” value ([1]; 50 μl, over a three-month period) was “approximately 8.0 μg/ml” and the “mean concentration of released dexamethasone in vitreous humor” value ([1]; high dose: 50 μl 25% DB (12 mg dexamethasone), Day 7 to Day 90) was 5560 ng/mL. The “mean level of dexamethasone in vitreous humor” value ([1]; low dose: 25 μl 25% DB (6 mg dexamethasone), Day 7 to Day 60) was 2800 ng/mL, the concentration at 60 day ([1]; rabbit, vitreous humor, other: injected into the posterior segment of the eye, 6 mg, low dose: 25 μl 25% DB, end of the Day 7 to Day 60 period, read-out: mean level of dexamethasone in vitreous humor, declined to) was 800 ng/mL and the concentration at 90 day ([1]; rabbit, vitreous humor, other: injected into the posterior segment of the eye, 12 mg, high dose: 50 μl 25% DB, by Day 90, read-out: mean level of dexamethasone in vitreous humor) was 1850 ng/mL.

In the case of `O=C(O)c1ccccc1O` [2-HBA, 2-hydroxy benzoic acid], the “maximum synovial fluid levels” value [2] is listed as 14.5 µg/mL, the “time of maximum synovial fluid levels” value [2] is listed as 21.9 min and the maximum plasma levels [2] is listed as 23 µg/mL. The “time of maximum plasma levels” value [2] was 10.9 min, the 2-HBA level ([3]; after 120 hours) was 5 µg/mL and the 2-HBA level ([3]; in 20 hours) was 20 µg/mL. For the same compound, the “2-HBA level, initial burst” value ([3]; within 6 hours) was 640 µg/mL.

With `CO[C@H]1C[C@@H]2CC[C@@H](C)[C@@](O)(O2)C(=O)C(=O)N2CCCC[C@H]2C(=O)O[C@H]([C@H](C)C[C@@H]2CC[C@@H](O)[C@H](OC)C2)CC(=O)[C@H](C)/C=C(\C)[C@@H](O)[C@@H](OC)C(=O)[C@H](C)C[C@H](C)/C=C/C=C/C=C/1C` [Rapamycin, rapamycin] the “duration of release of Rapamycin” value [4] was “over five”.

For `CC1(C)O[C@@H]2C[C@H]3[C@@H]4CCC5=CC(=O)C=C[C@]5(C)[C@@]4(F)[C@@H](O)C[C@]3(C)[C@]2(C(=O)CO)O1` [TA, triamcinolone acetonide], the “concentration above which harmful complications (glaucoma, cataracts, cytotoxicity) can arise” value [5] is listed as “exceed 10 μg/ml”.

In the case of `CC(=O)Oc1ccccc1C(=O)O` [2-ABA, 2-acetyloxybenzoic acid], the “maximum synovial fluid levels” value [2] is given as 2.5 µg/mL, the “time of maximum synovial fluid levels” value [2] is given as 19.4 min and the maximum plasma levels [2] is given as 3.3 µg/mL. The “time of maximum plasma levels” value [2] was 7.7 min, the “time until gone in the blood” value [2] was 75 min and the “combined 2-ABA/2-HBA levels in the plasma” value ([6]; ingestion of 0.650-1.3 g 2-ABA, humans) was 20 to 100 µg/mL. For the same compound, the “fraction hydrolyzed to 2-HBA in the plasma” value ([6]; within 30 minutes) was “about 97%”, the “time in which an initial level is halved in the vitreous” value ([7]; initial level of 4 μg/ml) was 1.5 to 2 h and the “concentration of 2-ABA/2-HBA in the vitreous” value ([7]; rabbit eyes, at plasma levels of about 20-100 μg/ml) was 5000 to 10000 ng/mL. The ID50 (COX-1 and COC-2 enzymes) was 0.9 to 9.0 µg/mL.

In the case of `O=C(O)c1cn(C2CC2)c2cc(N3CCNCC3)c(F)cc2c1=O` [ciprofloxacin], the duration of release [8] is reported as “sixty”.

With porcine insulin: porcine insulin the recovery from hypoglycemia (blood glucose levels; [9]) was “never recovered”, the “time to precipitous drop in glucose level” value (blood glucose levels; [9]) was “one-half” and the recovery from hypoglycemia (blood glucose levels; [10]) was “did not recover”. The “time over which perceptible drop in glucose level was seen” value (blood glucose levels; [10]) was “up to 3 hours”, the “time of lowest glucose level” value (blood glucose levels; 1 mg porcine insulin mixed with 0.1 ml tocopherol acetate, topically on shaved skin) was 5.5 h and the “slow recovery to pre-treatment glucose levels after” value (blood glucose levels; transdermal insulin with tocopherol acetate) was 24 to 48 h.
